Measurements: patent US6914045B2, “Glycopeptide antibiotics” (Wyeth Holdings Corporation, priority 2001, dated 2005)
≈ marks a conversion by molar mass, not a printed value. Read-outs that look alike come from different tables or passages of the source. Numbered stars: 1 amine (or outer) side, 2 acyl side, 3 side chain; on linkers, the order of the positions; unused ones are H or OH. Square brackets hold non-standard residues; d marks the D form. Peptide text beside a SMILES is read from it. X5 = N=C1NCC(C(O)[C@@H](N[*:1])C(=O)[*:2])N1; X4 = N=C1NCC(C(O)[C@H](N[*:1])C(=O)[*:2])N1; Cha = N[C@@H](CC1CCCCC1)C(=O)O; dCha = N[C@H](CC1CCCCC1)C(=O)O

Tests used:
Assay in all cases: in vitro antibacterial evaluation, MIC by broth dilution
Type in all cases: cell-based
Streptococcus sp. = conditions: broth dilution, 18 hours at 35° C.
In short: (§1)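 Read-out: the lowest concentration at which the test strain fails to grow. Serial dilutions (64-0.06 μg/mL) in Muller-Hinton II […], 5×10^5 CFU/mL inoculum, NCCLS M7-A2 procedure.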

Enterococcus sp. = conditions: broth dilution, 18 hours at 35° C.
In short: as §1

Staphylococcus sp. = conditions: broth dilution, 18 hours at 35° C.
In short: as §1

Escherichia coli = conditions: 18 hours at 35° C.
In short: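 Broth dilution MIC per NCCLS M7-A2 in Mueller-Hinton II medium, inoculum 5×10^5 CFU/mL, antibiotic range 64-0.06 μg/mL. MIC taken as lowest concentration inhibiting growth.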

## N=C1NCC(C(O)[C@@H]2NC(=O)[C@@H](CC3CCCCC3)NC(=O)[C@H](CC3CCCCC3)NC(=O)CNC(=O)[C@H](CO)NC(=O)[C@@H](C(O)C3CNC(=N)N3)NC2=O)N1 (stereo partly drawn) [Example 58, Cyclo[3-cyclohexylalanyl-3-cyclohexylalanyl-3-(2-iminoimidazolidin-4-yl)seryl-3-(2-iminoimidazolidin-4-yl)-serylserylglycyl]] (cyclo([Cha][dCha][X4][X5]SG))
Streptococcus sp.; read-out: MIC Streptococcus agalactiae (GC 4564)
  MIC: 16 µg/mL (≈ 20.2 µM)
Streptococcus sp.; read-out: MIC Streptococcus pneumoniae (ATCC 6301)
  MIC: 8 µg/mL (≈ 10.1 µM)
Streptococcus sp.; read-out: MIC Streptococcus pneumoniae (GC 1894)
  MIC: 8 µg/mL (≈ 10.1 µM)
Streptococcus sp.; read-out: MIC Streptococcus pneumoniae (GC 4565)
  MIC: 16 µg/mL (≈ 20.2 µM)
Streptococcus sp.; read-out: MIC Streptococcus pyogenes (GC 4563)
  MIC: 8 µg/mL (≈ 10.1 µM)
Streptococcus sp.; strain ATCC 6301
  MIC Streptococcus pneumoniae (ATCC 6301): 8 µg/mL (≈ 10.1 µM)
Streptococcus sp.; strain GC 1894
  MIC Streptococcus pneumoniae (GC 1894): 8 µg/mL (≈ 10.1 µM)
Streptococcus sp.; strain GC 4563
  MIC Streptococcus pyogenes (GC 4563): 8 µg/mL (≈ 10.1 µM)
Streptococcus sp.; strain GC 4564
  MIC Streptococcus agalactiae (GC 4564): 16 µg/mL (≈ 20.2 µM)
Streptococcus sp.; strain GC 4565
  MIC Streptococcus pneumoniae (GC 4565): 16 µg/mL (≈ 20.2 µM)
Enterococcus sp.; Enterococcus avium (GC 4558)
  MIC Enterococcus avium (GC 4558): 32 µg/mL (≈ 40.5 µM)
Enterococcus sp.; Enterococcus faecalis (ATCC 29212)
  MIC Enterococcus faecalis (ATCC 29212): 64 µg/mL (≈ 80.9 µM)
Enterococcus sp.; Enterococcus faecalis (GC 4552)
  MIC Enterococcus faecalis (GC 4552): 64 µg/mL (≈ 80.9 µM)
Enterococcus sp.; Enterococcus faecalis (GC 4553)
  MIC Enterococcus faecalis (GC 4553): 32 µg/mL (≈ 40.5 µM)
Enterococcus sp.; Enterococcus faecalis (GC 4554)
  MIC Enterococcus faecalis (GC 4554): 64 µg/mL (≈ 80.9 µM)
Enterococcus sp.; Enterococcus faecalis (GC 6189)
  MIC Enterococcus faecalis (GC 6189): 64 µg/mL (≈ 80.9 µM)
Enterococcus sp.; Enterococcus faecium (GC 2243)
  MIC Enterococcus faecium (GC 2243): 32 µg/mL (≈ 40.5 µM)
Enterococcus sp.; Enterococcus faecium (GC 4556)
  MIC Enterococcus faecium (GC 4556): 64 µg/mL (≈ 80.9 µM)
Enterococcus sp.; Enterococcus faecium (GC 4557)
  MIC Enterococcus faecium (GC 4557): 8 µg/mL (≈ 10.1 µM)
Enterococcus sp.; read-out: MIC Enterococcus avium (GC 4558)
  MIC: 32 µg/mL (≈ 40.5 µM)
Enterococcus sp.; read-out: MIC Enterococcus faecalis (ATCC 29212)
  MIC: 64 µg/mL (≈ 80.9 µM)
Enterococcus sp.; read-out: MIC Enterococcus faecalis (GC 2242)
  MIC: 64 µg/mL (≈ 80.9 µM)
Enterococcus sp.; read-out: MIC Enterococcus faecalis (GC 2691)
  MIC: 64 µg/mL (≈ 80.9 µM)
Enterococcus sp.; read-out: MIC Enterococcus faecalis (GC 3059)
  MIC: 64 µg/mL (≈ 80.9 µM)
Enterococcus sp.; read-out: MIC Enterococcus faecalis (GC 4552)
  MIC: 64 µg/mL (≈ 80.9 µM)
Enterococcus sp.; read-out: MIC Enterococcus faecalis (GC 4553)
  MIC: 32 µg/mL (≈ 40.5 µM)
Enterococcus sp.; read-out: MIC Enterococcus faecalis (GC 4554)
  MIC: 64 µg/mL (≈ 80.9 µM)
Enterococcus sp.; read-out: MIC Enterococcus faecalis (GC 6189)
  MIC: 64 µg/mL (≈ 80.9 µM)
Enterococcus sp.; read-out: MIC Enterococcus faecium (GC 2243)
  MIC: 32 µg/mL (≈ 40.5 µM)
Enterococcus sp.; read-out: MIC Enterococcus faecium (GC 4556)
  MIC: 64 µg/mL (≈ 80.9 µM)
Enterococcus sp.; read-out: MIC Enterococcus faecium (GC 4557)
  MIC: 8 µg/mL (≈ 10.1 µM)
Enterococcus sp.; strain GC 2242
  MIC Enterococcus faecalis (GC 2242): 64 µg/mL (≈ 80.9 µM)
Enterococcus sp.; strain GC 2691
  MIC Enterococcus faecalis (GC 2691): 64 µg/mL (≈ 80.9 µM)
Enterococcus sp.; strain GC 3059
  MIC Enterococcus faecalis (GC 3059): 64 µg/mL (≈ 80.9 µM)
Staphylococcus sp.; Staphylococcus, strain GC 4543, read-out: MIC Staphylococcus aureus-SMITH (GC 4543)
  MIC: 4 µg/mL (≈ 5.06 µM)
Staphylococcus sp.; Staphylococcus, strain GC 4547, read-out: MIC Coagulase Negative Staphylococcus (GC 4547)
  MIC: 4 µg/mL (≈ 5.06 µM)
Staphylococcus sp.; Staphylococcus, strain GC 4548, read-out: MIC Coagulase Negative Staphylococcus (GC 4548)
  MIC: 4 µg/mL (≈ 5.06 µM)
Staphylococcus sp.; Staphylococcus, strain GC 4549, read-out: MIC Coagulase Negative Staphylococcus (GC 4549)
  MIC: 4 µg/mL (≈ 5.06 µM)
Staphylococcus sp.; Staphylococcus, strain GC 4551, read-out: MIC Coagulase Negative Staphylococcus (GC 4551)
  MIC: 8 µg/mL (≈ 10.1 µM)
Staphylococcus sp.; strain ATCC 29213, read-out: MIC Staphylococcus aureus (ATCC 29213)
  MIC: 16 µg/mL (≈ 20.2 µM)
Staphylococcus sp.; strain GC 1131, read-out: MIC Staphylococcus aureus (GC 1131)
  MIC: 8 µg/mL (≈ 10.1 µM)
Staphylococcus sp.; strain GC 3051, read-out: MIC Staphylococcus aureus (GC 3051)
  MIC: 16 µg/mL (≈ 20.2 µM)
Staphylococcus sp.; strain GC 3053, read-out: MIC Staphylococcus aureus (GC 3053)
  MIC: 32 µg/mL (≈ 40.5 µM)
Staphylococcus sp.; strain GC 4541, read-out: MIC Staphylococcus aureus (GC 4541)
  MIC: 16 µg/mL (≈ 20.2 µM)
Staphylococcus sp.; strain GC 4542, read-out: MIC Staphylococcus aureus (GC 4542)
  MIC: 16 µg/mL (≈ 20.2 µM)
Staphylococcus sp.; strain GC 4544, read-out: MIC Staphylococcus aureus (GC 4544)
  MIC: 16 µg/mL (≈ 20.2 µM)
Staphylococcus sp.; strain GC 4545, read-out: MIC Staphylococcus aureus (GC 4545)
  MIC: 8 µg/mL (≈ 10.1 µM)
Staphylococcus sp.; strain GC 4546, read-out: MIC Staphylococcus haemolyticus (GC 4546)
  MIC: 4 µg/mL (≈ 5.06 µM)
Escherichia coli; Escherichia coli (ATCC 25922), read-out: MIC Escherichia coli (ATCC 25922)
  MIC: 16 µg/mL (≈ 20.2 µM)
Escherichia coli; Escherichia coli, read-out: MIC Escherichia coli (GC 4559)
  MIC: 8 µg/mL (≈ 10.1 µM)
Escherichia coli; Escherichia coli, read-out: MIC Escherichia coli (GC 4560)
  MIC: 16 µg/mL (≈ 20.2 µM)
